Experiments:
[1] = AUC(0 to infinity) in single iv dosed BALB/c mouse by HPLC analysis; type: ADME, organism-based; design: time infinity, route intravenous; settings: in vivo
[2] = Toxicity in rat skeletal muscle assessed as widening of endomysium by histopathological analysis; type: tissue-based, Skeletal muscle tissue; settings: in vivo
[3] = Toxicity in rat liver assessed as hepatocytes degeneration by histopathological analysis
[4] = Toxicity in rat skeletal muscle assessed as infiltration of inflammatory cells by histopathological analysis; type: tissue-based, Skeletal muscle tissue
[5] = Toxicity in rat liver assessed as microvesicular steatosis by histopathological analysis; type: tissue-based
[6] = Toxicity in rat kidney assessed as epithelial degeneration by histopathological analysis; type: tissue-based; settings: in vivo
[7] = Biodistribution in kidney of iv dosed tumor bearing BALB/c mouse; type: ADME, organism-based; settings: in vivo
[8] = Toxicity in rat heart assessed as myocardial necrosis by histopathological analysis; type: tissue-based; settings: in vivo
[9] = Toxicity in rat kidney assessed as tubular necrosis by histopathological analysis; type: tissue-based; settings: in vivo
[10] = AUMC(0 to t) in single iv dosed BALB/c mouse by HPLC analysis; type: ADME, organism-based; settings: in vivo
[11] = Biodistribution in heart of iv dosed tumor bearing BALB/c mouse; type: ADME, organism-based; settings: in vivo
[12] = AUC(0 to t) in single iv dosed BALB/c mouse by HPLC analysis; type: ADME, organism-based; settings: in vivo
[13] = Toxicity in rat heart assessed as myocardial cell degeneration by histopathological analysis; type: tissue-based
[14] = Mean residence time in single iv dosed BALB/c mouse by HPLC analysis; type: ADME, organism-based; settings: in vivo
[15] = AUMC(0 to infinity) in single iv dosed BALB/c mouse by HPLC analysis; type: ADME, organism-based; settings: in vivo
[16] = Toxicity in rat kidney assessed as glomerular necrosis by histopathological analysis; type: tissue-based; settings: in vivo
[17] = Toxicity in rat kidney assessed as congestion of glomeruli blood vessels by histopathological analysis; type: tissue-based; settings: in vivo
[18] = Biodistribution in spleen of iv dosed tumor bearing BALB/c mouse; type: ADME, organism-based; settings: in vivo
[19] = Biodistribution in blood of single iv dosed tumor bearing BALB/c mouse; type: ADME, organism-based; settings: in vivo
[20] = Biodistribution in liver of iv dosed tumor bearing BALB/c mouse; type: ADME, organism-based; settings: in vivo
[21] = Toxicity in rat kidney assessed as tubular degeneration by histopathological analysis; type: tissue-based; settings: in vivo
[22] = Toxicity in tumor bearing BABL/c mouse assessed as median survival time at 5 mg/kg, iv (reference value: 7.5 day); type: organism-based; settings: in vivo, 180 h
[23] = Half life in single iv dosed BALB/c mouse by HPLC analysis; type: ADME, organism-based; settings: in vivo
[24] = Toxicity in rat heart assessed as haemorrhage by histopathological analysis; type: tissue-based; settings: in vivo

COc1cccc2c1C(=O)c1c(O)c3c(c(O)c1C2=O)C[C@@](O)(C(=O)CO)C[C@@H]3O[C@H]1C[C@H](N)[C@H](O)[C@H](C)O1 [DOXORUBICIN]
AUC(0-inf) [1]: 10400 ng·h/mL
Activity [2]: Toxic
Activity [3]: Toxic
Activity [4]: Toxic
Activity [5]: Toxic
Activity [6]: Toxic
Drug uptake [7]: Active
Activity [8]: Toxic
Activity [9]: Toxic
AUMCt [10]: 29.45 ug/ml.hr^2
Drug uptake [11]: Active
AUC(0-t) [12]: 11400 ng·h/mL
Activity [13]: Toxic
MRT [14]: 3.1 h
AUMC [15]: 30.25 ug/ml.hr^2
Activity [16]: Toxic
Activity [17]: Toxic
Drug uptake [18]: Active
Drug uptake [19]: Active
Drug uptake [20]: Active
Activity [21]: Toxic
Activity [22]: Non-Toxic
MST [22]: 40 days
t1/2 [23]: 2.09 h
Activity [24]: Toxic
